Experimental findings from ChEMBL document CHEMBL4387728, “Synthetic glycopeptides reveal specific binding pattern and conformational change at O-mannosylated position of α-dystroglycan by POMGnT1 catalyzed GlcNAc modification” (Bioorg Med Chem, 2019) are described below.

One assay deals with Maackia amurensis. In words: Binding affinity to biotin-labeled Maackia amurensis agglutinin in pH 7.4 Tris buffer by fluorescence microarray method.
In the next assay the test system is Datura stramonium. In words: Binding affinity to biotin-labeled Datura stramonium agglutinin in pH 7.4 Tris buffer by fluorescence microarray method.
Another assay relates to Arachis hypogaea. In words: Binding affinity to biotin-labeled Arachis hypogaea agglutinin in pH 7.4 Tris buffer by fluorescence microarray method.
Assay [1] relates to Sambucus racemosa subsp. sieboldiana. In words: Binding affinity to biotin-labeled Sambucus sieboldiana agglutinin in pH 7.4 Tris buffer by fluorescence microarray method.
In another assay the test system is Erythrina crista-galli. In words: Binding affinity to biotin-labeled Erythrina crista-galli agglutinin in pH 7.4 Tris buffer by fluorescence microarray method.
For another assay, the system named is Triticum aestivum. In words: Binding affinity to biotin-labeled Wheat germ agglutinin in pH 7.4 Tris buffer by fluorescence microarray method.
In a further assay the test system is Canavalia ensiformis. In words: Binding affinity to biotin-labeled Canavalia ensiformis agglutinin in pH 7.4 Tris buffer by fluorescence microarray method.
Assay [2] has as its target Laminin subunit alpha-1 (Homo sapiens) (UniProt P25391). In words: Binding affinity to biotin-labeled human recombinant laminin-1 at 10 ug/ml in pH 7.4 Tris buffer by fluorescence microarray method.
Assay [3] is filed under the species Homo sapiens. In words: Binding affinity to biotin-labeled human recombinant laminin-2 at 10 ug/ml in pH 7.4 Tris buffer by fluorescence microarray method.
For assay [4], the target named is Lactotransferrin (Homo sapiens) (UniProt P02788). In words: Binding affinity to biotin-labeled lactoferrin (unknown origin) at 10 ug/ml in pH 7.4 Tris buffer by fluorescence microarray method.
Chain of Lactotransferrin (Homo sapiens) (P02788 whole entry): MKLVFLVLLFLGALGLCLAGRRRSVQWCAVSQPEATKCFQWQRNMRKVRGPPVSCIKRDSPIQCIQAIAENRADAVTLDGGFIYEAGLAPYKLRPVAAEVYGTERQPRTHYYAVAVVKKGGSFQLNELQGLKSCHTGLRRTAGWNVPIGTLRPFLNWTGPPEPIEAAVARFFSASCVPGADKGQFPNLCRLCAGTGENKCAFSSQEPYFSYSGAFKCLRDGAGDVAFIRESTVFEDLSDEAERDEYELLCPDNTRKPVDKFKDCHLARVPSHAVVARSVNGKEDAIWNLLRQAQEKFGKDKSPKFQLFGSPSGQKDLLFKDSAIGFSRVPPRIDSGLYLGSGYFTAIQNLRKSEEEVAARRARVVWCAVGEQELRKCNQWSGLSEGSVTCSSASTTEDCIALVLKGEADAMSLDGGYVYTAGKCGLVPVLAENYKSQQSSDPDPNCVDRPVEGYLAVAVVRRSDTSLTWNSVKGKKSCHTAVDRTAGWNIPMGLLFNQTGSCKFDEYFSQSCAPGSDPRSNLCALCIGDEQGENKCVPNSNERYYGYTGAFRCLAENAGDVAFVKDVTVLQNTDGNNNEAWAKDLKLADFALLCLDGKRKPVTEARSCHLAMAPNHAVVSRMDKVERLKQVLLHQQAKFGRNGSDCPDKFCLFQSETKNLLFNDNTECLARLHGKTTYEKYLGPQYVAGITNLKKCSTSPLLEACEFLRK
Assay [5] addresses Laminin subunit alpha-1 (Homo sapiens) (UniProt P25391). In words: Binding affinity to biotin-labeled human recombinant laminin-1 at 10 ug/ml in pH 5.6 MES buffer by fluorescence microarray method.
Assay [6] concerns the target Lactotransferrin (Homo sapiens) (UniProt P02788). In words: Binding affinity to biotin-labeled lactoferrin (unknown origin) at 10 ug/ml in pH 5.6 MES buffer by fluorescence microarray method.
Assay [7] is filed under the species Homo sapiens. In words: Binding affinity to biotin-labeled human recombinant laminin-2 at 10 ug/ml in 5.6 MES buffer by fluorescence microarray method.
Assay [8] is described as follows: Binding affinity to biotin-labeled Agaricus bisporus agglutinin in pH 7.4 Tris buffer by fluorescence microarray method.

Active and inactive are the calls of the source. No cut-off for these calls is given here. Peptide text beside a SMILES is read from it. * marks the point of attachment. GlcNAc(β1-2)αMan = CC(=O)N[C@H]1[C@H](O[C@H]2[C@@H](O)[C@H](O)[C@@H](CO)O[C@@H]2*)O[C@H](CO)[C@@H](O)[C@@H]1O; Hexanoyl(5-oxo) = CC(=O)CCCC(=O)*

Chain of Laminin subunit alpha-1 (Homo sapiens) (P25391 whole entry): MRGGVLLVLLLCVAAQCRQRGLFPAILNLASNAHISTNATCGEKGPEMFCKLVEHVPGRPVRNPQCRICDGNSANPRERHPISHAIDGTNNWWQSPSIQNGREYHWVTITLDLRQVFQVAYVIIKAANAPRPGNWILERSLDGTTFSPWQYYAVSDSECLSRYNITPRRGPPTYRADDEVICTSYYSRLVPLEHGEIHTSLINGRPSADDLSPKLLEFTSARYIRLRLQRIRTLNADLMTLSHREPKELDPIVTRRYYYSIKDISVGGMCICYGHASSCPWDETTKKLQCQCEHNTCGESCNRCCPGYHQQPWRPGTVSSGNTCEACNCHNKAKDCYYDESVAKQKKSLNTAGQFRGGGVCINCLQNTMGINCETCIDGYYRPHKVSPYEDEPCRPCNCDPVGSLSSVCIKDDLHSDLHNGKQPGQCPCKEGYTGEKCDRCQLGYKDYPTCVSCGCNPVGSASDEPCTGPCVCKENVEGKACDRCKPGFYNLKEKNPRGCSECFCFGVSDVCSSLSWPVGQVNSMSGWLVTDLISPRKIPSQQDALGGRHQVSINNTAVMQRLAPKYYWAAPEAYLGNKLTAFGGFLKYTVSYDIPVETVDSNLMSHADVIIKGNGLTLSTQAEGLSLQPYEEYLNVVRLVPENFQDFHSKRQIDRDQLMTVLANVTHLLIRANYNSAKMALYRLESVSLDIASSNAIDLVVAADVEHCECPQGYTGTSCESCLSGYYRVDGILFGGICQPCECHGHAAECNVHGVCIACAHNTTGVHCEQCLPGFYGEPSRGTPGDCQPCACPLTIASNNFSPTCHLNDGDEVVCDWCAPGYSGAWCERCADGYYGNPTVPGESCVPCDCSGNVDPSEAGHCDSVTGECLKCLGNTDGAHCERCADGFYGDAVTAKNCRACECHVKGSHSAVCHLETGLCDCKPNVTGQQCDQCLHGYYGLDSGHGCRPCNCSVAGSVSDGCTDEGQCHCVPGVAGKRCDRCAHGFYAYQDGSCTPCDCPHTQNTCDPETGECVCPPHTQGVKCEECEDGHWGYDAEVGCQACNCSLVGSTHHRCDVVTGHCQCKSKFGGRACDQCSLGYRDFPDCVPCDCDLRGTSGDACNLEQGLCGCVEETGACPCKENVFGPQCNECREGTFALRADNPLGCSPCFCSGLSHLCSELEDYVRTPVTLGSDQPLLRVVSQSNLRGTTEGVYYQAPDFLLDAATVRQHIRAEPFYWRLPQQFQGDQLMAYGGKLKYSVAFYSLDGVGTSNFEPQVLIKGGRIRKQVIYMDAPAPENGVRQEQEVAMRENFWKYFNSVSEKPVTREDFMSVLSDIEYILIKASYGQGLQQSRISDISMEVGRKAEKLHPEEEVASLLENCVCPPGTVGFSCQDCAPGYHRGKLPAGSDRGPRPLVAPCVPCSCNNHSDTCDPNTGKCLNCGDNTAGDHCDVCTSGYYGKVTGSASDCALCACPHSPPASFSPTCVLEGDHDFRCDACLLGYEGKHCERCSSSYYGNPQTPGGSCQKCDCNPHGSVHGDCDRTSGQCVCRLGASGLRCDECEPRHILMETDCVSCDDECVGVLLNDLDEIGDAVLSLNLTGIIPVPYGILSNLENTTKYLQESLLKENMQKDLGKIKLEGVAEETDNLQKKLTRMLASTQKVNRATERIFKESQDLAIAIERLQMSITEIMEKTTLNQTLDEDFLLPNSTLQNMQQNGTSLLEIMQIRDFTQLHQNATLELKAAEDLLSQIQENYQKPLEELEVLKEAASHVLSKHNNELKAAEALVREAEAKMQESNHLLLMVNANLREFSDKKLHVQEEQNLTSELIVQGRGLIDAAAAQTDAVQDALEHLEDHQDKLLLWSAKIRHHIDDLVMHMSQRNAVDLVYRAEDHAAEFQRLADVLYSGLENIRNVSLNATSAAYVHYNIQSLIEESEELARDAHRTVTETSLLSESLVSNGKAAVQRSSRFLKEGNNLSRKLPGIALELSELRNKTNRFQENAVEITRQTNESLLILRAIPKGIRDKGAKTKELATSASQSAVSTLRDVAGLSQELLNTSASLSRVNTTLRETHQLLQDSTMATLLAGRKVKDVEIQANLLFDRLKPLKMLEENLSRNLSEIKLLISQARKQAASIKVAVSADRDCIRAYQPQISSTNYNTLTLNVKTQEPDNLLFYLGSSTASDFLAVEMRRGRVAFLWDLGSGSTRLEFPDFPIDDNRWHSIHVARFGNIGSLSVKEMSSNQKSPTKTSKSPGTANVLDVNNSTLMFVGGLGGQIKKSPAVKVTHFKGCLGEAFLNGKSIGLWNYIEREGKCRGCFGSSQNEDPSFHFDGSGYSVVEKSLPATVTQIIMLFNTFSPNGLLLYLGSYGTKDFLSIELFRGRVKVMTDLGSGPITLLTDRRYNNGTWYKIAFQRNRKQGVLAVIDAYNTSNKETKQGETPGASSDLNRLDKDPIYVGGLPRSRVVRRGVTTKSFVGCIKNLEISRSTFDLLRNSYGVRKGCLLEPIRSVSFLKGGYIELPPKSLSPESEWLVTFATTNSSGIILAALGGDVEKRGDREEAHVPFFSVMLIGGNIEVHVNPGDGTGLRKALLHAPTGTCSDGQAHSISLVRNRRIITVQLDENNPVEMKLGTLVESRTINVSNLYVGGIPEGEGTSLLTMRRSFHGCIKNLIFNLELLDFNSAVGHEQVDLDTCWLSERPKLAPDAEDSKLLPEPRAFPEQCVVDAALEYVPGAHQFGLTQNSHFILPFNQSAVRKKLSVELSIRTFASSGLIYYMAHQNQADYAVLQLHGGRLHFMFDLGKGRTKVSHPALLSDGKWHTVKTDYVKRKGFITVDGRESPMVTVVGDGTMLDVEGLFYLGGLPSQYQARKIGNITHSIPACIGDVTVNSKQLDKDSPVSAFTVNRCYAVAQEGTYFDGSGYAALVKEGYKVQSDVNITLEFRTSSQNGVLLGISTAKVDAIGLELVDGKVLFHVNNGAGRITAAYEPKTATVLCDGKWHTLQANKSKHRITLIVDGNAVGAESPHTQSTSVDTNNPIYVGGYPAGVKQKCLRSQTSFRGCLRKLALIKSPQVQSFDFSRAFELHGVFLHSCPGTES

`CC[C@H](C)[C@H](NC(=O)[C@H](C)NC(=O)CNC(=O)[C@H](CCCNC(=N)N)NC(=O)[C@@H](NC(=O)CCCC(C)=O)[C@@H](C)O)C(=O)N[C@H](C(=O)N[C@@H](CCC(N)=O)C(=O)N[C@H](C(=O)N1CCC[C@H]1C(=O)N[C@H](C(=O)N[C@@H](CC(C)C)C(=O)NCC(=O)N1CCC[C@H]1C(=O)N[C@H](C(=O)N[C@@H](CCC(N)=O)C(=O)N1CCC[C@H]1C(=O)N[C@H](C(=O)N[C@@H](CCCNC(=N)N)C(=O)N[C@H](C(N)=O)C(C)C)[C@@H](C)O[C@H]1O[C@H](CO)[C@@H](O)[C@H](O)[C@@H]1O[C@@H]1O[C@H](CO)[C@@H](O[C@@H]2O[C@H](CO)[C@H](O)[C@H](O[C@]3(C(=O)O)C[C@H](O)[C@@H](NC(C)=O)[C@H]([C@H](O)[C@H](O)CO)O3)[C@H]2O)[C@H](O)[C@H]1NC(C)=O)[C@@H](C)CC)[C@@H](C)O[C@H]1O[C@H](CO)[C@@H](O)[C@H](O)[C@@H]1O[C@@H]1O[C@H](CO)[C@@H](O[C@@H]2O[C@H](CO)[C@H](O)[C@H](O[C@]3(C(=O)O)C[C@H](O)[C@@H](NC(C)=O)[C@H]([C@H](O)[C@H](O)CO)O3)[C@H]2O)[C@H](O)[C@H]1NC(C)=O)[C@@H](C)O[C@H]1O[C@H](CO)[C@@H](O)[C@H](O)[C@@H]1O[C@@H]1O[C@H](CO)[C@@H](O[C@@H]2O[C@H](CO)[C@H](O)[C@H](O[C@]3(C(=O)O)C[C@H](O)[C@@H](NC(C)=O)[C@H]([C@H](O)[C@H](O)CO)O3)[C@H]2O)[C@H](O)[C@H]1NC(C)=O)[C@@H](C)CC`: the outcome (in the assay with Maackia amurensis; with Datura stramonium; in the assay filed under Homo sapiens [3]; in assay [4]) was inactive. For the same molecule, the result (in the assay on Arachis hypogaea; in assay [1]; in the assay on Erythrina crista-galli; with Triticum aestivum; in the assay on Canavalia ensiformis; in assay [2]) was Active. The result (in [5]; in assay [6]; in the assay listed under Homo sapiens [7]; in assay [8]) was Active.
On to `CC[C@H](C)[C@H](NC(=O)[C@H](C)NC(=O)CNC(=O)[C@H](CCCNC(=N)N)NC(=O)[C@@H](NC(=O)CCCC(C)=O)[C@@H](C)O)C(=O)N[C@H](C(=O)N[C@@H](CCC(N)=O)C(=O)N[C@H](C(=O)N1CCC[C@H]1C(=O)N[C@H](C(=O)N[C@@H](CC(C)C)C(=O)NCC(=O)N1CCC[C@H]1C(=O)N[C@H](C(=O)N[C@@H](CCC(N)=O)C(=O)N1CCC[C@H]1C(=O)N[C@H](C(=O)N[C@@H](CCCNC(=N)N)C(=O)N[C@H](C(N)=O)C(C)C)[C@@H](C)O[C@H]1O[C@H](CO)[C@@H](O)[C@H](O)[C@@H]1O[C@@H]1O[C@H](CO)[C@@H](O)[C@H](O)[C@H]1NC(C)=O)[C@@H](C)CC)[C@@H](C)O[C@H]1O[C@H](CO)[C@@H](O)[C@H](O)[C@@H]1O[C@@H]1O[C@H](CO)[C@@H](O)[C@H](O)[C@H]1NC(C)=O)[C@@H](C)O[C@H]1O[C@H](CO)[C@@H](O)[C@H](O)[C@@H]1O[C@@H]1O[C@H](CO)[C@@H](O)[C@H](O)[C@H]1NC(C)=O)[C@@H](C)CC` ({Hexanoyl(5-oxo)}-TRGAIIQT(GlcNAc(β1-2)αMan)PT(GlcNAc(β1-2)αMan)LGPIQPT(GlcNAc(β1-2)αMan)RV-NH2), for which the outcome (in the assay on Maackia amurensis; in the assay on Datura stramonium; in the assay filed under Homo sapiens [3]; in [4]) was inactive. The result (in the assay on Arachis hypogaea; in assay [1]; in the assay with Erythrina crista-galli; in the assay on Triticum aestivum; in the assay with Canavalia ensiformis; in assay [2]) was Active. For the same molecule, the outcome (in assay [5]; in assay [6]; in the assay listed under Homo sapiens [7]; in [8]) was Active.
As to `CC[C@H](C)[C@H](NC(=O)[C@H](C)NC(=O)CNC(=O)[C@H](CCCNC(=N)N)NC(=O)[C@@H](NC(=O)CCCC(C)=O)[C@@H](C)O)C(=O)N[C@H](C(=O)N[C@@H](CCC(N)=O)C(=O)N[C@H](C(=O)N1CCC[C@H]1C(=O)N[C@H](C(=O)N[C@@H](CC(C)C)C(=O)NCC(=O)N1CCC[C@H]1C(=O)N[C@H](C(=O)N[C@@H](CCC(N)=O)C(=O)N1CCC[C@H]1C(=O)N[C@H](C(=O)N[C@@H](CCCNC(=N)N)C(=O)N[C@H](C(N)=O)C(C)C)[C@@H](C)O)[C@@H](C)CC)[C@@H](C)O[C@H]1O[C@H](CO)[C@@H](O)[C@H](O)[C@@H]1O[C@@H]1O[C@H](CO)[C@@H](O)[C@H](O)[C@H]1NC(C)=O)[C@@H](C)O[C@H]1O[C@H](CO)[C@@H](O)[C@H](O)[C@@H]1O[C@@H]1O[C@H](CO)[C@@H](O)[C@H](O)[C@H]1NC(C)=O)[C@@H](C)CC` ({Hexanoyl(5-oxo)}-TRGAIIQT(GlcNAc(β1-2)αMan)PT(GlcNAc(β1-2)αMan)LGPIQPTRV-NH2), the result (in the assay on Maackia amurensis; in the assay with Datura stramonium; in the assay filed under Homo sapiens [3]; in assay [4]) was inactive. The result (with Arachis hypogaea; in assay [1]; with Erythrina crista-galli; with Triticum aestivum; in the assay on Canavalia ensiformis; in assay [2]) was Active. The result (in [5]; in assay [6]; in the assay listed under Homo sapiens [7]; in [8]) was Active.
Turning to `CC[C@H](C)[C@H](NC(=O)[C@H](C)NC(=O)CNC(=O)[C@H](CCCNC(=N)N)NC(=O)[C@@H](NC(=O)CCCC(C)=O)[C@@H](C)O)C(=O)N[C@H](C(=O)N[C@@H](CCC(N)=O)C(=O)N[C@H](C(=O)N1CCC[C@H]1C(=O)N[C@H](C(=O)N[C@@H](CC(C)C)C(=O)NCC(=O)N1CCC[C@H]1C(=O)N[C@H](C(=O)N[C@@H](CCC(N)=O)C(=O)N1CCC[C@H]1C(=O)N[C@H](C(=O)N[C@@H](CCCNC(=N)N)C(=O)N[C@H](C(N)=O)C(C)C)[C@@H](C)O[C@H]1O[C@H](CO)[C@@H](O)[C@H](O)[C@@H]1O[C@@H]1O[C@H](CO)[C@@H](O)[C@H](O)[C@H]1NC(C)=O)[C@@H](C)CC)[C@@H](C)O)[C@@H](C)O[C@H]1O[C@H](CO)[C@@H](O)[C@H](O)[C@@H]1O[C@@H]1O[C@H](CO)[C@@H](O)[C@H](O)[C@H]1NC(C)=O)[C@@H](C)CC` ({Hexanoyl(5-oxo)}-TRGAIIQT(GlcNAc(β1-2)αMan)PTLGPIQPT(GlcNAc(β1-2)αMan)RV-NH2), the outcome (with Maackia amurensis; in the assay on Datura stramonium; in the assay filed under Homo sapiens [3]; in assay [4]) was inactive. For the same molecule, the result (with Arachis hypogaea; in assay [1]; with Erythrina crista-galli; in the assay with Triticum aestivum; with Canavalia ensiformis; in assay [2]) was Active. Further, the result (in assay [5]; in [6]; in the assay filed under Homo sapiens [7]; in [8]) was Active.
As for `CC[C@H](C)[C@H](NC(=O)[C@H](C)NC(=O)CNC(=O)[C@H](CCCNC(=N)N)NC(=O)[C@@H](NC(=O)CCCC(C)=O)[C@@H](C)O)C(=O)N[C@H](C(=O)N[C@@H](CCC(N)=O)C(=O)N[C@H](C(=O)N1CCC[C@H]1C(=O)N[C@H](C(=O)N[C@@H](CC(C)C)C(=O)NCC(=O)N1CCC[C@H]1C(=O)N[C@H](C(=O)N[C@@H](CCC(N)=O)C(=O)N1CCC[C@H]1C(=O)N[C@H](C(=O)N[C@@H](CCCNC(=N)N)C(=O)N[C@H](C(N)=O)C(C)C)[C@@H](C)O)[C@@H](C)CC)[C@@H](C)O)[C@@H](C)O[C@H]1O[C@H](CO)[C@@H](O)[C@H](O)[C@@H]1O[C@@H]1O[C@H](CO)[C@@H](O)[C@H](O)[C@H]1NC(C)=O)[C@@H](C)CC` ({Hexanoyl(5-oxo)}-TRGAIIQT(GlcNAc(β1-2)αMan)PTLGPIQPTRV-NH2), the outcome (with Maackia amurensis; in the assay with Datura stramonium; in the assay filed under Homo sapiens [3]; in assay [4]) was inactive. Also, the outcome (with Arachis hypogaea; in assay [1]; in the assay on Erythrina crista-galli; in the assay with Triticum aestivum; with Canavalia ensiformis; in [2]) was Active. In addition, the result (in assay [5]; in assay [6]; in the assay listed under Homo sapiens [7]; in assay [8]) was Active.
